Measurements reported in PubChem BioAssay (NCI).
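Following 48 hours of exposure in 96-well plates, responses at five concentrations were used to interpolate endpoints linearly. GI50 is the concentration that inhibits growth by half. Definition used: TGI = concentration required for complete inhibition of growth.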

Legend:
Test in all cases: inhibition of tumour cell growth, NCI panel, 48 h
DU-145 prostate = tested on: DU-145 prostate
SK-OV-3 ovarian = tested on: SK-OV-3 ovarian
PC-3 prostate = tested on: PC-3 prostate
A498 renal = tested on: A498 renal
SK-MEL-2 melanoma = tested on: SK-MEL-2 melanoma
HCT-15 colon = tested on: HCT-15 colon
COLO 205 colon = tested on: COLO 205 colon
HT29 colon = tested on: HT29 colon
SK-MEL-5 melanoma = tested on: SK-MEL-5 melanoma
RPMI-8226 leukemia = tested on: RPMI-8226 leukemia
OVCAR-8 ovarian = tested on: OVCAR-8 ovarian
CCRF-CEM leukemia = tested on: CCRF-CEM leukemia
EKVX NSCLC = tested on: EKVX NSCLC
NCI-H226 lung = tested on: NCI-H226 lung
HS 578T breast = tested on: HS 578T breast
A549 NSCLC = tested on: A549 NSCLC
NCI/ADR-RES ovarian = tested on: NCI/ADR-RES ovarian
NCI-H522 lung = tested on: NCI-H522 lung
BT-549 breast = tested on: BT-549 breast
HCT-116 colon = tested on: HCT-116 colon
SNB-75 CNS = tested on: SNB-75 CNS
U251 CNS = tested on: U251 CNS
RXF 393 renal = tested on: RXF 393 renal
SNB-19 CNS = tested on: SNB-19 CNS
IGROV1 ovarian = tested on: IGROV1 ovarian
MDA-MB-231 breast = tested on: MDA-MB-231 breast
HOP-92 NSCLC = tested on: HOP-92 NSCLC
K-562 leukemia = tested on: K-562 leukemia
HOP-62 NSCLC = tested on: HOP-62 NSCLC

Cn1ccc2c(NCCN)c3c(c(NCCN)c21)C(=O)c1ccccc1C3=O
GI50 (DU-145 prostate): 0.453 µM | TGI (DU-145 prostate): 6.05 µM | GI50 (SK-OV-3 ovarian): 20.3 µM | TGI (SK-OV-3 ovarian): 42.4 µM | GI50 (PC-3 prostate): 0.494 µM | TGI (PC-3 prostate): 3.18 µM | GI50 (A498 renal): 2.31 µM | TGI (A498 renal): 4.87 µM | GI50 (SK-MEL-2 melanoma): 2.33 µM | TGI (SK-MEL-2 melanoma): 11.5 µM | GI50 (HCT-15 colon): 2.8 µM | TGI (HCT-15 colon): > 32 µM | GI50 (COLO 205 colon): 24.4 µM | TGI (COLO 205 colon): 68.4 µM | GI50 (HT29 colon): 7.77 µM | TGI (HT29 colon): > 44.8 µM | GI50 (SK-MEL-5 melanoma): 2.19 µM | TGI (SK-MEL-5 melanoma): 4.99 µM | GI50 (RPMI-8226 leukemia): 0.455 µM | GI50 (OVCAR-8 ovarian): 2.84 µM | TGI (OVCAR-8 ovarian): 13.4 µM | GI50 (CCRF-CEM leukemia): 0.371 µM | GI50 (EKVX NSCLC): 1.34 µM | TGI (EKVX NSCLC): 5.3 µM | GI50 (NCI-H226 lung): 1.3 µM | TGI (NCI-H226 lung): 5.8 µM | GI50 (HS 578T breast): 1.84 µM | TGI (HS 578T breast): 5.26 µM | GI50 (A549 NSCLC): 2.83 µM | TGI (A549 NSCLC): 12.1 µM | GI50 (NCI/ADR-RES ovarian): 8.04 µM | TGI (NCI/ADR-RES ovarian): 26.7 µM | GI50 (NCI-H522 lung): 0.498 µM | TGI (NCI-H522 lung): 4.92 µM | GI50 (BT-549 breast): 7.62 µM | TGI (BT-549 breast): 23.7 µM | GI50 (HCT-116 colon): 0.398 µM | TGI (HCT-116 colon): 4.41 µM | GI50 (SNB-75 CNS): 18.9 µM | TGI (SNB-75 CNS): 44.5 µM | GI50 (U251 CNS): 1.03 µM | TGI (U251 CNS): 9.88 µM | GI50 (RXF 393 renal): 1.5 µM | TGI (RXF 393 renal): 3.67 µM | GI50 (SNB-19 CNS): 20.5 µM | TGI (SNB-19 CNS): 47.2 µM | GI50 (IGROV1 ovarian): 0.824 µM | TGI (IGROV1 ovarian): > 31.8 µM | GI50 (MDA-MB-231 breast): 0.619 µM | TGI (MDA-MB-231 breast): 2.38 µM | GI50 (HOP-92 NSCLC): 0.718 µM | TGI (HOP-92 NSCLC): 2.58 µM | GI50 (K-562 leukemia): 0.589 µM | TGI (K-562 leukemia): 83.6 µM | GI50 (HOP-62 NSCLC): 0.35 µM
